Legend:
Format in all cases: physicochemical
[1] = Competitive suspension equilibration monofumarate Form A and Form B (Experiment Reference 16); details: 16-A at 20 °C, 16-B at 40 °C
Method: Competitive suspension equilibration (Form A and Form B) (Experiment Reference 16) a. Experimental Procedure Equimolar quantities of Form A (Pattern #6a, 25.4 mg, 1 wt, 8-A4; (Experiment Reference 8-Sample Reference A4)) and Form B (Pattern #2a, 25.0 mg, 1 wt, Sample B-A2) were suspended in tBME (250 μl, 5.0 vol). The first experiment was agitated at 20° C., (16-A) (Experiment Reference 16-Sample Reference A), while the other was agitated at 40° C. (16-B) (Experiment Reference 16-Sample Reference B). The suspension was monitored by XRPD analysis.
Competitive suspension equilibration of Form A (8-A4) (Experiment Reference 8-Sample Reference A4) versus Form B (Sample B-A2) was performed at 20° C. […] Summary of competitive suspension equilibration between Form A and Form B (16-A (Experiment Reference 16-Sample Reference A) and 16-B (Experiment Reference 16-Sample Reference B)) is provided in Table 153A.

[2] = Evaporation screen of the monofumarate salt (Experiment Reference 14); details: input Sample Reference 1, Solvent A DMSO, Solvent B: 14-A EtOH; for XRPD crystallinity (oven dried): 14-B nBuOH, 14-C water; for XRPD crystallinity (wet pellet): 14-B nBuOH (disordered), 14-C water (high background)
Method: Crystallization of the API was examined by changing the composition of the crystallization solvent by evaporation of a volatile diluent. This technique is useful for generating kinetic forms and solvates. Separate portions of the tabernanthalog monofumarate salt (Pattern #1, Sample Reference 1, ca 50 mg, 1.0 wt.) were charged to separate vessels. DMSO (100 μl, 2.0 vol, refer to Table 132) was charged to the relevant vessels and subsequent charges of the appropriate co-solvent (900 μl, 18.0 vol) were made to accomplish dissolution. The vials were covered with an aluminum foil cap and pierced with a single hole, then left to stand at 20° C. After 6 days, gentle nitrogen flux was applied to dryness. The products were analyzed by XRPD and companion analyses, for evidence of alternative crystalline forms.

[3] = Vapour diffusion of the monofumarate salt (Experiment Reference 13); details: input Sample Reference 1, Solvent A DMSO, Solvent B: 13-B TBME, 13-C water, patterns v. disordered
Method: The tabernanthalog monofumarate salt (Sample Reference 1, Pattern #1, 3×75 mg, 1 wt) was weighed out in to 3 separate snap-top vials and DMSO (375 ul, 5 vol) was charged to each vial. Gentle warning was applied to ensure full dissolution and the vials (open) were placed inside amber jars that contained 6 ml of DCM (13-A) (Experiment Reference 13-Sample Reference A), tBME (13-B) (Experiment Reference 13-Sample Reference B) and water (13-C) (Experiment Reference 13-Sample Reference C).
The 3 jars that contained the vials were left standing at 20° C., to allow slow movement of the diffusant solvent from the outer jar into the solvent inside the smaller, open wide-necked vessel and promote crystallization by altering the solvent composition.

[4] = Binary solvent evaporation crystallisation of sorbate salt (Example 10, Experiment 6); details: sorbate salt Form A evaporated from MeOH (10 vol) plus solvent B (5 vol), one solvent B per sample
Source text: Each vial was capped with aluminium foil, pierced, and allowed to stand undisturbed until the evaporation is completed.

[5] = Stability panel of salts, open vial / double-bagged vial, t=5 d and 10 d; details: input Form A
Source text: FIG. 797 depicts the overlay of, from top to bottom, XRPD of Experiment 1-Sample A2 (Form A), Experiment 10-Sample A1 (5 days, open vial Pattern #2), Experiment 10-Sample A2 (10 days, open vial, Pattern #2), Experiment 10-Sample B1 (5 days, double-bagged vial, Form A) and Experiment 10-Sample B2 (10 days, double-bagged vial, Pattern #2).

[6] = Stability of Tabernanthalog·Sorbate·HemiHFIPA at 75% RH, 20° C. and 40° C.; details: 5 days; for HFIPA content after storage / powder pattern after storage: 75% RH, 20° C. and 40° C.; for HFIPA content after storage: 19F NMR; for powder pattern after storage: XRPD; for Outcome: input Experiment 3-Sample A2
Method: Stability of the salt (Table 302) at elevated relative humidity was examined at 20 and 40° C., to determine if the HFIPA solvent can be replaced by water to generate the isomorphic hydrate.
Experimental reference: Experiment 3-Sample B1, Experiment 3-Sample C1 Tabernanthalog·Sorbate·HemiHFIPA (Experiment 3-Sample A2, 28.2 mg, 1 wt) was charged into a wide necked solid sample vial, the uncapped vial was placed inside a larger amber jar containing an aqueous NaCl slurry. The amber jar was sealed and left to stand for 5 days. The specimen analysed by XRPD, ^19F NMR, TGA and DSC after 5 days.

[7] = listed as Tabernanthalog·Sorbate·hemiHFIPA

## COc1ccc2c3c([nH]c2c1)CCN(C)CC3.O=C(O)/C=C/C(=O)O [Pattern 16-A]
[1]; competitive suspension equilibration of Form A and Form B in TBME (5.0 vol), t = 4 weeks
  XRPD (4 weeks, -A8): Form A > Form B
[1]; competitive suspension equilibration of Form A and Form B in TBME (5.0 vol), t = 48 h
  XRPD (48 h, -A2): Form A > Form B
[1]; competitive suspension equilibration of Form A and Form B in TBME (5.0 vol), t = 108 h
  XRPD (108 h, -A3): Form A > Form B
[1]; competitive suspension equilibration of Form A and Form B in TBME (5.0 vol), t = 192 h
  XRPD (192 h, -A4): Form A >> Form B

## COc1ccc2c3c([nH]c2c1)CCN(C)CC3.O=C(O)/C=C/C(=O)O [Sample 14-A]
[2]
  XRPD crystallinity (oven dried): Pattern 23

## COc1ccc2c3c([nH]c2c1)CCN(C)CC3.O=C(O)/C=C/C(=O)O [Pattern 14-B]
[2]
  XRPD crystallinity (wet pellet): (Pattern #23)

## COc1ccc2c3c([nH]c2c1)CCN(C)CC3.O=C(O)/C=C/C(=O)O [Sample 13-C]
[3]
  XRPD crystallinity (oven dried): Pattern #23
  XRPD crystallinity (wet pellet): Pattern #23

## COc1ccc2c3c([nH]c2c1)CCN(C)CC3.O=C(O)/C=C/C(=O)O [Sample 13-B]
[3]
  XRPD crystallinity (oven dried): Pattern #24
  XRPD crystallinity (wet pellet): Pattern #24

## COc1ccc2c3c([nH]c2c1)CCN(C)CC3.O=C(O)/C=C/C(=O)O [Sample 14-B]
[2]
  XRPD crystallinity (oven dried): Pattern 23

## C/C=C/C=C/C(=O)O.COc1ccc2c3c([nH]c2c1)CCN(C)CC3 [Experiment 6-Sample E]
[4]
  XRPD (dried under nitrogen): Form A

## C/C=C/C=C/C(=O)O.COc1ccc2c3c([nH]c2c1)CCN(C)CC3 [Experiment 6-Sample D]
[4]
  XRPD (dried under nitrogen): Form A

## C/C=C/C=C/C(=O)O.COc1ccc2c3c([nH]c2c1)CCN(C)CC3 [tabernanthalog sorbate salt Form A]
[5]; 5 days, double-bagged vial
  form by XRPD after stability storage: Form A
[5]; 5 days, open vial
  form by XRPD after stability storage: Pattern #2
[5]; 10 days, double-bagged vial
  form by XRPD after stability storage: Pattern #2

## COc1ccc2c3c([nH]c2c1)CCN(C)CC3.O=C(O)/C=C/C(=O)O [Pattern 14-A]
[2]
  XRPD crystallinity (wet pellet): (Pattern #23)

## COc1ccc2c3c([nH]c2c1)CCN(C)CC3.O=C(O)/C=C/C(=O)O [Sample 14-C]
[2]
  XRPD crystallinity (oven dried): Pattern 6a

## CC=CC=CC(=O)O.COc1ccc2c3c([nH]c2c1)CCN(C)CC3 [Experiment 6-Sample A]
[4]
  XRPD (dried under nitrogen): Pattern #1

## C/C=C/C=C/C(=O)O.C/C=C/C=C/C(=O)O.COc1ccc2c3c([nH]c2c1)CCN(C)CC3.COc1ccc2c3c([nH]c2c1)CCN(C)CC3.OC(C(F)(F)F)C(F)(F)F [Tabernanthalog·Sorbate·HemiHFIPA]
[6]
  HFIPA content after storage: small decrease in HFIPA content
  powder pattern after storage: No change in powder pattern observed
[6]; [7]
  HFIPA content after storage: partial loss of HFIPA
  powder pattern after storage: No change in the powder pattern was observed

## CC=CC=CC(=O)O.CC=CC=CC(=O)O.COc1ccc2c3c([nH]c2c1)CCN(C)CC3.COc1ccc2c3c([nH]c2c1)CCN(C)CC3.OC(C(F)(F)F)C(F)(F)F [Tabernanthalog•Sorbate•hemiHFIPA]
[6]; 75% RH 20° C.
  Outcome: HemiHFIPA
[6]; 75% RH 40° C.
  Outcome: HemiHFIPA

## CC=CC=CC(=O)O.COc1ccc2c3c([nH]c2c1)CCN(C)CC3 [Experiment 6-Sample C]
[4]
  XRPD (dried under nitrogen): Form A

## COc1ccc2c3c([nH]c2c1)CCN(C)CC3.O=C(O)/C=C/C(=O)O [Pattern 16-B]
[1]; competitive suspension equilibration of Form A (8-A4) and Form B (Sample B-A2) in TBME (5.0 vol), t = 24 h
  XRPD (24 h, -A1): Form A > Form B

## COc1ccc2c3c([nH]c2c1)CCN(C)CC3.O=C(O)/C=C/C(=O)O [Pattern 14-C]
[2]
  XRPD crystallinity (wet pellet): (Pattern #6a)
